Results on seven molecules are retold here after patent US20140249097A1, “Inhibition of HIF-1 activation for Anti-Tumor and Anti-Inflammatory responses” (priority 2010, published 2014).

In one data set the test system is nitric oxide. Description: Flow cytometry of intracellular nitric oxide (DAF-FM) in 4T1ODD-luc cells. It counts as cell-based, mouse. The following applies: 10 μg/ml 1400W or 15 μM EGCG with 1 μg/ml doxorubicin, 48 hours. Here is the method:
To detect intracellular nitric oxide levels, 1×10^6 4 T1ODD-luc cells were plated per 10-cm cell culture dish with 8 ml of cell culture medium. Doxorubicin (1 μg/ml and 5 μg/ml) or an equal volume of control solvent was added into the cell culture medium the next day and treatment continued for 48 hours. […] Equal amounts of solvent were added for the control group. To quantify intracellular nitric oxide, a single cell suspension was made after trypsinization. 2 ml of 5 uM nitric oxide-specific probe DAF-FM diacetate (4-amino-5-methylamino-2′,7′-difluorofluorescein diacetate) (Invitrogen) were incubated with each cell sample at room temperature in darkness for 30 minutes. The cells were washed with PBS and centrifuged to remove the excess DAF-FM diacetate probe. The cells were resuspended into 500 ul of phenol-free DMEM and incubated for another 20 minutes for complete intracellular deacetylation of the probe. The mean fluorescence intensity of the deacetylated DAF-FM reacted with nitric oxide was quantified by FACSCalibur flow cytometer in FITC channel (Becton Dickinson, Franklin Lakes, N.J., United States of America).

The next data set concerns iNOS. Description: Western blotting of iNOS in 4T1ODD-luc cells. Format: cell-based, mouse. The following applies: for inhibition of iNOS expression in doxorubicin-treated cells / doxorubicin-induced iNOS upregulation: with doxorubicin; for inhibition of iNOS expression in doxorubicin-treated cells: 24 h; for doxorubicin-induced iNOS upregulation: 48 h; for basal level of iNOS expression: without doxorubicin, 24 h and 48 h, 10 μg/ml 1400W or 15 μM EGCG. Here is the method: (§1) Cell nuclear proteins were extracted using the NucBuster protein extraction kit (Novagen, Gibbstown, N.J., United States of America). Total cell lysates or cell nuclear extractions were quantified using a protein assay reagent (Bio-Rad). Equal amounts of protein sample were separated by Bis-HCl gel (Bio-Rad) and transferred to a […] Immun-Blot PVDF membrane (Bio-Rad).

The test system of another data set is STAT1. As to the kind of experiment: Western blotting of STAT1 and phospho-STAT1 in 4T1ODD-luc cells. Format: cell-based, mouse. The conditions noted are these: 48 hours post-treatment. The method, then:
as §1
For orientation: In western blotting, separated proteins are transferred to a membrane and probed.

For the next data set, the system named is 4T1ODD-luc cells. As to the kind of experiment: Cell Titer-Glo cell viability assay. The conditions noted are these: 10 μg/ml 1400W or 15 μM EGCG with 1 μg/ml doxorubicin, to day 3. An excerpt:
Cell viability was quantified by Cell Titer-Glo luminescent cell viability assay (Promega, Madison, Wis., United States of America) daily until day 3. The daily cell viability was normalized to the initial cell viability on day 0 within each group.

For data set [1], the system named is HIF-1α. Format: cell-based, murine.
The test system of the next data set is C533S-ODD-luc. As to the kind of experiment: C533S-ODD-luc reporter in 4T1 cells in vitro. It counts as cell-based, murine.
For data set [2], the system named is HIF-1α. Description: Western blotting of HIF-1α in MCF-7 cells. Format: cell-based, human. The conditions noted are these: MCF-7 cells, post-treatment day 3. Here is the method: as §1
In data set [3] the test system is HIF-1α. As to the kind of experiment: Western blotting of HIF-1α in 4T1ODD-luc cells. It counts as cell-based, mouse. The following applies: 4T1ODD-luc cells, post-treatment day 2. Here is the method: as §1
For another data set, the system named is B16F10 (murine melanoma). As to the kind of experiment: Tumor growth delay, radiotherapy plus L-NAME, B16F10. It counts as in vivo, mice. The conditions noted are these: B16F10 tumors, 3×6 Gy, L-NAME in drinking water. An excerpt: (§2) Female NIH Swiss nude mice, C57BL/6 mice were purchased from the National Cancer Institute (NCI; Fredrick, Md., United States of America). Mice with a genetic disruption of the inducible […] gene (C57BL/6 iNOS^−/−) were obtained from the Jackson Laboratory (Bar Harbor, Me., United States of America). Female BALB/c mice were obtained from Charles River Laboratories (Raleigh, N.C., United States of America). Animals were maintained and cared for in accordance with the Duke University Institutional Animal Care and Use Committee guidelines. For tumor implantation, 4T1 tumors were grown in nude mice or in syngeneic BALB/c mice, and B16F10 melanoma in syngeneic C57BL/6 or iNOS^−/− mice. About 5×10^5 wild type- or luciferase reporter gene-transfected tumor cells were injected subcutaneously (s.c.) into mice in 50 μl of PBS solution in the hind legs of ketamine/xylazine-anesthetized mice. When the tumors reached 6-8 mm in diameter, mice were randomly assigned to experimental groups. To image the luciferase activity, single dose of 6 Gy X-ray was given to the tumor on the right leg and this day was set as day 0. The luciferase activity was imaged everyday or every other day for ten days. For the tumor growth delay assay, radiotherapy was employed in its clinical mode: tumors were treated with 3 fractions of 6 Gy every other day from day 0.

The next data set deals with tumor vasculature. As to the kind of experiment: CD31 staining of tumor vasculature. The following applies: L-NAME in conjunction with radiotherapy, tumors excised day 10, 4T1 and B16F10. Format: in vivo, mice. The method, then: Vessel staining was performed on tumor cryoslices by using the VECTASTAIN® ABC and the NOVARED™ kits from Vector Laboratories (Burlingame, Calif., United States of America), according to the manufacturer's protocol. The primary anti-CD31 antibody (Santa Cruz Biotechnology, Santa Cruz, Calif.) was labeled with a secondary biotinylated anti-rabbit antibody (Jackson ImmunoResearch Labs, Inc.). Slices were counterstained using Harris' hematoxilin. Vascular density was determined by counting CD31-positive structures in 5 random fields per tumor.

The test system of data set [4] is 4T1 (murine mammary adenocarcinoma). As to the kind of experiment: Tumor growth delay, radiotherapy plus L-NAME, 4T1. It counts as in vivo, mice. The following applies: 4T1 tumors, 3×6 Gy, L-NAME in drinking water.
Excerpt: as §2

Where two headings read alike, the source gives them in different places. Peptide text beside a SMILES is read from it. * marks the point of attachment. Cbz = O=C(OCc1ccccc1)*

As to `CC(=N)NCc1cccc(CN)c1` [1400W, N-(3-(aminomethyl)benzyl)acetamidine], in the data set with nitric oxide, the “doxorubicin-induced increase of intracellular NO” value is “significantly suppressed the doxorubicin-induced increase of intracellular NO”. In addition, in the data set with iNOS, the “inhibition of iNOS expression in doxorubicin-treated cells” value is “not obvious”, the “doxorubicin-induced iNOS upregulation” value is “successfully suppressed the doxorubicin-induced iNOS upregulation” and the “basal level of iNOS expression” value was “suppressed the basal level of iNOS expression”. In the data set with STAT1, the “doxorubicin-induced upregulation of STAT1 expression and activation” value was “potently suppressed the doxorubicin-induced upregulation of STAT1 expression and activation”. The “effect of combination on cytotoxicity of doxorubicin (cell viability)” value in the data set on 4T1ODD-luc cells is “did not attenuate the cytotoxicity of doxorubicin”.

Consider `[Cl-].[Cl-].[Co+2]` [CoCl2], for which the “luminescence arising from ODD-luc reporter gene expression” value in the data set with HIF-1α [1] was “rose significantly”. Also, the C533S-ODD-luc induction entry in the data set with C533S-ODD-luc was “significant inductions, similar to wild-type”.

Turning to `O=C(O[C@@H]1Cc2c(O)cc(O)cc2O[C@@H]1c1cc(O)c(O)c(O)c1)c1cc(O)c(O)c(O)c1` [EGCG, epigallocatechin gallate], the “doxorubicin-induced increase of intracellular NO” value with nitric oxide is reported as “significantly suppressed the doxorubicin-induced increase of intracellular NO”. Besides, in the data set on iNOS, the “inhibition of iNOS expression in doxorubicin-treated cells” value is reported as “not obvious”, the “doxorubicin-induced iNOS upregulation” value is “successfully suppressed the doxorubicin-induced iNOS upregulation” and the “basal level of iNOS expression” value is “suppressed the basal level of iNOS expression”. In addition, the “doxorubicin-induced upregulation of STAT1 expression and activation” value in the data set with STAT1 was “potently suppressed the doxorubicin-induced upregulation of STAT1 expression and activation”. Also, in the data set on 4T1ODD-luc cells, the “effect of combination on cytotoxicity of doxorubicin (cell viability)” value is on record as “did not attenuate the cytotoxicity of doxorubicin”. For the same molecule, the “doxorubicin-induced normoxic HIF-1α accumulation” value in the data set on HIF-1α [2] is given as “successfully suppressed the doxorubicin-induced normoxic HIF-1α accumulation”. For the same molecule, the “doxorubicin-induced normoxic HIF-1α accumulation” value in the data set with HIF-1α [3] was “successfully suppressed the doxorubicin-induced normoxic HIF-1α accumulation”.

Regarding `N[C@@H](CCC(=O)N[C@@H](CSN=O)C(=O)NCC(=O)O)C(=O)O` [GSNO, S-nitrosoglutathione], the “C533S-ODD-luc expression induced by GSNO” value in the data set on C533S-ODD-luc (4T1 cells, GSNO 1 mM) is on record as “almost absent”.

For the molecule `COC(=O)[C@@H](N)CCCNC(=N)N[N+](=O)[O-]` [L-NAME, Nω-nitro-L-arginine methyl ester], the “tumor growth delay, therapeutic efficacy of radiotherapy with L-NAME” value (in the data set with B16F10 (murine melanoma); in data set [4]) was “significantly enhanced the therapeutic efficacy of radiotherapy” each time. For the same molecule, in the data set with tumor vasculature, the “tumor vasculature (CD31+ vascular density)” value was “significantly reduced tumor vasculature”.

Take `CC(C)C[C@@H](C=O)NC(=O)[C@H](CC(C)C)NC(=O)[C@H](CC(C)C)NC(=O)OCc1ccccc1` [MG132] (Cbz-Leu-Leu-Leu-aldehyde): the “luminescence arising from ODD-luc reporter gene expression” value in the data set on HIF-1α [1] (4T1 cells, CoCl2 240 μM for 12 hrs, MG132 10 μM for 12 hrs, vs background) is recorded as “rose significantly”.

On to `CC1(C)N([O])C(c2ccc(C(=O)[O-])cc2)=[N+]([O-])C1(C)C.[K+]` [carboxy-PTIO, potassium 2-(4-carboxyphenyl)-4,4,5,5-tetramethylimidazoline-1-oxyl-3-oxide], for which, in the data set on HIF-1α [1], the “effect on HIF-1α activation (ODD-luc) by GSNO” value is reported as “effectively suppressed HIF-1α activation by GSNO”.
